In US20230399342A1 (Incyte Corporation, priority 2022, published 2023):
pIC50: −log10 of the molar value.

Key:
[1] = target: DGKα (Homo sapiens (Human), UniProt P23743); test: In vitro DGKα inhibition assay (ADP-Glo); type: biochemical; details: His-tagged human recombinant enzyme, 0.1 nM DGKα, 50 μM ATP, 20 μM DLG, 90 minute incubation
Description: (§1) The DGKα and DGKξ biochemical reactions were performed using His-tagged human recombinant enzymes (Signal Chem, DGKα, #D21-1OBH; DGKξ, #D30-10H)) and DLG (Dilauroyl-sn-glycerol) lipid substrate (Signal Chem, #D430-59). ADP-Glo assay was performed using ADP-Glog™ kinase Assay kit (Promega, #V9104). The reactions were carried out in assay buffer containing 40 mM Tris, pH 7.5, 0.1% CHAPS, 0.1% Prionex, 40 mM NaCl, 5 mM MgCl2, 1 mM CaCl2, and 1 mM DTT. DGKα reactions contained 0.1 nM DGKα, 50 μM ATP, and 20 μM DLG. And DGKC reactions contained 0.4 nM DGK, 30 μM ATP, and 20 μM DLG.
(§2) For compound inhibition studies, 40 nL test compound in DMSO was added to wells of white polystyrene plates in 384-well (Greiner, #784075) or 1536-well format (Greiner, #782075). Compounds were added with top concentration of 2 mM with 11 point, 3-fold dilution series. Enzyme solution (contains 2×DGK enzyme concentration in Ix assay buffer) was added to the plate in 2 μL/well volume, followed by 2 μL/well of substrate solution (contains 2×concentration of ATP and DLG substrate in Ix assay buffer). Plates were then centrifuged for 1 min at 1200 RPM and sealed or lidded. For 4 μL reaction volume, test compounds were therefore diluted 100× to final top concentration of 20 μM. After 90 minute incubation, reactions were quenched by addition of 2 μL/well Promega ADP-Glo Reagent, followed by centrifugation and lidding. After 60 min incubation, 2 μL/well Promega Kinase Detection Reagent was added, plates centrifuged, and incubated for 30 min. Plates were then read using Luminescence method on BMG PHERAstar FSX plate reader. Percent inhibition was calculated and IC50s were determined using 4-parameter fit in Genedata Screener. Labcyte Echo acoustic dispenser was used for compound addition, and Formulatrix Tempest liquid handler was used for all reagent dispenses.

[2] = target: DGKζ (Homo sapiens (Human), UniProt Q13574); test: In vitro DGKζ inhibition assay (ADP-Glo); type: biochemical; details: His-tagged human recombinant enzyme, 0.4 nM DGK, 30 μM ATP, 20 μM DLG, 90 minute incubation
Sequence of DGKζ (Q13574 whole entry): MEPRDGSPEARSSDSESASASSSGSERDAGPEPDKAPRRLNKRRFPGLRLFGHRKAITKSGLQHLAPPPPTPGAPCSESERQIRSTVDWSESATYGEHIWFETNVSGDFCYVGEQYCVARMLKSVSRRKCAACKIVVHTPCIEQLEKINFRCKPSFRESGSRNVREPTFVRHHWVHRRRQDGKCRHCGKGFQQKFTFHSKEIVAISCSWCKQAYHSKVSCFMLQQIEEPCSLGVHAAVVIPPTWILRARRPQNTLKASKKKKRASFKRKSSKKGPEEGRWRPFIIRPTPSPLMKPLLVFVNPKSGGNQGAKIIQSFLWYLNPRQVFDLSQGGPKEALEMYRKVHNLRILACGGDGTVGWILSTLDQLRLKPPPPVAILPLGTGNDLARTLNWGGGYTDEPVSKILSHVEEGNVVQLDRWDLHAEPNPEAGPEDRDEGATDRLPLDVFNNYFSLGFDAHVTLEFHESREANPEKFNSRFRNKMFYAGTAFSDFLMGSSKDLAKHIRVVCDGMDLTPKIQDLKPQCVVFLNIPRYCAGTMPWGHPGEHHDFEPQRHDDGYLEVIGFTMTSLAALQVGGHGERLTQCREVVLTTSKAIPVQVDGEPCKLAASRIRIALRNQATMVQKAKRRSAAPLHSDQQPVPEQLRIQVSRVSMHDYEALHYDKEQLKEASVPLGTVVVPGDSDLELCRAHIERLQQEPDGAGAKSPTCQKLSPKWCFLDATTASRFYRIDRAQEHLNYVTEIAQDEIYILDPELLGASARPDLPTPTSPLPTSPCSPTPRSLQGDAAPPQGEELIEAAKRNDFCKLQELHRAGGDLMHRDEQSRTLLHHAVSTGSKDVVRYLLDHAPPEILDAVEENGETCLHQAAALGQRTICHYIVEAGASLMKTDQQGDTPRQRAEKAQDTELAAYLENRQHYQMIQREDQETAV
Description: as §1, §2

Sequence of DGKα (P23743 whole entry): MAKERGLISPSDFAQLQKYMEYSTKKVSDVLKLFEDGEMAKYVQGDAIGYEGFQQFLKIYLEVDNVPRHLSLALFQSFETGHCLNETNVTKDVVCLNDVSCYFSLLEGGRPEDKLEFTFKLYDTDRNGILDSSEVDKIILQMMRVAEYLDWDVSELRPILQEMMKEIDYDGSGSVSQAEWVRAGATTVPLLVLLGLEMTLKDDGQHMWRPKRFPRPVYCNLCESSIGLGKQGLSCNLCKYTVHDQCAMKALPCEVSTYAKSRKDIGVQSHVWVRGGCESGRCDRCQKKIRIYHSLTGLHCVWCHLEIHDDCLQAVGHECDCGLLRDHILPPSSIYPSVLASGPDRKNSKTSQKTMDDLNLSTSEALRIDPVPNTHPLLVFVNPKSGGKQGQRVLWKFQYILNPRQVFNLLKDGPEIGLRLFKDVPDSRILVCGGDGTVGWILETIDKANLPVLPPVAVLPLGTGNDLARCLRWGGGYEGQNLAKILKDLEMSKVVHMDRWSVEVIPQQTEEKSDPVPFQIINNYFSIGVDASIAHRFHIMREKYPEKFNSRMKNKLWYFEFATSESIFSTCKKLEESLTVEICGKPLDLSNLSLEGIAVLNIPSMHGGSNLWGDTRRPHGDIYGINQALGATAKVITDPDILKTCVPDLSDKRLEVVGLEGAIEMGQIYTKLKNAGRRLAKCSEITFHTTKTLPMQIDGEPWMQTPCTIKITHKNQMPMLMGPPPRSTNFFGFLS

Row | SMILES | pIC50 [1] | pIC50 [2]
1 | C[C@@H]1CN(c2nc3nncn3c3c2ncn3CCN(C)C)[C@@H](C)CN1C(c1ccc(F)cc1)c1ccc(F)cc1 [Example 28, 2-(4-((2S,5R)-4-(Bis(4-fluorophenyl)methyl)-2,5-dimethylpiperazin-1-yl)-1H-[1,2,4]triazolo[3,4-b]purin-1-yl)-N,N-dimethylethan-1-amine] | ≥ 7.70 | ≥ 7.70
2 | CC[C@@H]1CN(c2nc3nncn3c3c2nc(C)n3C[C@@H]2CCCO2)[C@@H](C)CN1[C@@H](c1ccc(OC(F)(F)F)cc1)C(C)C [Example 131, 4-((2S,5R)-5-ethyl-2-methyl-4-((R)-2-methyl-1-(4-(trifluoromethoxy)phenyl)propyl)piperazin-1-yl)-2-methyl-1-(((S)-tetrahydrofuran-2-yl)methyl)-1H-[1,2,4]triazolo[3,4-b]purine] | ≥ 7.70 | ≥ 7.70
3 | C[C@@H]1CN(c2nc3nncn3c3ccoc23)[C@@H](C)CN1C(c1ccc(F)cc1)c1ccc(F)cc1 [Example 7, 5-((2S,5R)-4-(Bis(4-fluorophenyl)methyl)-2,5-dimethylpiperazin-1-yl)furo[2,3-e][1,2,4]triazolo[4,3-a]pyrimidine] | ≥ 7.70 | < 5.70
4 | C[C@H]1CN(C(c2ccc(F)cc2)c2ccc(F)cc2)[C@H](CC#N)CN1c1nc2nncn2c2c1ncn2C [Example 16, 2-((2R,5S)-1-(Bis(4-fluorophenyl)methyl)-5-methyl-4-(1-methyl-1H-[1,2,4]triazolo[3,4-b]purin-4-yl)piperazin-2-yl)acetonitrile] | ≥ 7.70 | ≥ 7.70
5 | N#CCC[C@@H]1CN(c2nc3nncn3c3scnc23)CCN1C(c1ccc(F)cc1)c1ccc(F)cc1 [Example 17, (R)-3-(1-(Bis(4-fluorophenyl)methyl)-4-(thiazolo[4,5-e][1,2,4]triazolo[4,3-a]pyrimidin-4-yl)piperazin-2-yl)propanenitrile] | ≥ 7.70 | 6.70 to 7.70
6 | C[C@@H]1CN(c2nc3nncn3c3c2nnn3C[C@@H]2CCCO2)[C@@H](C)CN1C(c1ccc(Br)cc1)c1ccc(Br)cc1 [Example 111, 4-((2S,5R)-4-(Bis(4-bromophenyl)methyl)-2,5-dimethylpiperazin-1-yl)-1-(((S)-tetrahydrofuran-2-yl)methyl)-1H-[1,2,3]triazolo[4,5-e][1,2,4]triazolo[4,3-a]pyrimidine] | ≥ 7.70 | ≥ 7.70
7 | Cc1nc2c(N3C[C@@H]([C@H](C)O)N(C(c4ccc(F)cc4)c4ccc(F)cc4)C[C@@H]3C)nc3nncn3c2n1C[C@@H]1CCCO1 [Example 124, (S)-1-((2S,5S)-1-(bis(4-fluorophenyl)methyl)-5-methyl-4-(2-methyl-1-(((S)-tetrahydrofuran-2-yl)methyl)-1H-[1,2,4]triazolo[3,4-b]purin-4-yl)piperazin-2-yl)ethan-1-ol] | ≥ 7.70 | ≥ 7.70
8 | Cc1nc2c(N3C[C@@H](C)N(C(c4ccc(F)c(Cl)c4F)C4CC(F)(F)C4)C[C@@H]3C)nc3nncn3c2n1C[C@@H]1CCCO1 (stereo partly drawn) [Example 57, 4-((2S,5R)-4-((3-Chloro-2,4-difluorophenyl)(3,3-difluorocyclobutyl)methyl)-2,5-dimethylpiperazin-1-yl)-2-methyl-1-(((S)-tetrahydrofuran-2-yl)methyl)-1H-[1,2,4]triazolo[3,4-b]purine] | ≥ 7.70 | ≥ 7.70
9 | C[C@@H]1CN(c2nc3nncn3c3ccsc23)[C@@H](C)CN1C(c1ccc(F)cc1)c1ccc(F)cc1 [Example 8, 5-((2S,5R)-4-(Bis(4-fluor ophenyl)methyl)-2,5-dimethylpiperazin-1-yl)thieno[2,3-e][1,2,4]triazolo[4,3-a]pyrimidine] | – | 5.70 to 6.70

The remaining lines, values ahead:

Row | pIC50 [1] | pIC50 [2] | SMILES
10 | ≥ 7.70 | ≥ 7.70 | Cc1nc2c(N3C[C@@H](C)N(C(c4ccc(C(F)F)c(F)c4)C(C)C)C[C@@H]3C)nc3nncn3c2n1C[C@@H]1CCCO1 (single isomer, unassigned) [Example 81]
11 | ≥ 7.70 | ≥ 7.70 | Cc1nc2c(N3C[C@@H](C)N([C@H](c4ccc(C(F)(F)F)cc4F)C(C)C)C[C@@H]3C)nc3nncn3c2n1C[C@@H]1CCCO1 [Example 71, 4-((2S,5R)-4-((S)-1-(2-Fluoro-4-(trifluoromethyl)phenyl)-2-methylpropyl)-2,5-dimethylpiperazin-1-yl)-2-methyl-1-(((S)-tetrahydrofuran-2-yl)methyl)-1H-[1,2,4]triazolo[3,4-b]purine]
12 | ≥ 7.70 | ≥ 7.70 | Cc1nc2c(N3C[C@@H](C)N([C@H](c4ccc(C(F)F)cc4)C(C)C)C[C@@H]3C)nc3nncn3c2n1C[C@@H]1CCCO1 [Example 73, 4-((2S,5R)-4-((S)-1-(4-(Difluoromethyl)phenyl)-2-methylpropyl)-2,5-dimethylpiperazin-1-yl)-2-methyl-1-(((S)-tetrahydrofuran-2-yl)methyl)-1H-[1,2,4]triazolo[3,4-b]purine]
13 | ≥ 7.70 | ≥ 7.70 | Cc1nc2c(N3C[C@@H](C)N([C@@H](c4cccc(C(F)(F)F)c4)C(C)C)C[C@@H]3C)nc3nncn3c2n1C[C@@H]1CCCO1 [Example 70, 4-((2S,5R)-2,5-dimethyl-4-((R)-2-methyl-1-(3-(trifluoromethyl)phenyl)propyl)piperazin-1-yl)-2-methyl-1-(((S)-tetrahydrofuran-2-yl)methyl)-1H-[1,2,4]triazolo[3,4-b]purine]
14 | ≥ 7.70 | ≥ 7.70 | C[C@H]1CN(C(c2ccc(F)cc2)c2ccc(F)cc2)[C@H](CC#N)CN1c1nc2nncn2c2scnc12 [Example 14, 2-((2R,5S)-1-(Bis(4-fluorophenyl)methyl)-5-methyl-4-(thiazolo[4,5-e][1,2,4]triazolo[4,3-a]pyrimidin-4-yl)piperazin-2-yl)acetonitrile]
15 | ≥ 7.70 | ≥ 7.70 | Cc1nc2c(N3C[C@@H](C)N([C@H](c4ccc(F)c(Cl)c4)C(C)C)C[C@@H]3C)nc3nncn3c2n1C[C@@H]1CCCO1 [Example 86, 4-((2S,5R)-4-((S)-1-(3-Chloro-4-fluorophenyl)-2-methylpropyl)-2,5-dimethylpiperazin-1-yl)-2-methyl-1-(((S)-tetrahydrofuran-2-yl)methyl)-1H-[1,2,4]triazolo[3,4-b]purine]
16 | ≥ 7.70 | ≥ 7.70 | Cc1nc2c(N3C[C@@H](C)N(C(c4ccc(C(F)(F)F)c(F)c4)C4CC(F)(F)C4)C[C@@H]3C)nc3nncn3c2n1C[C@@H]1CCCO1 (single isomer, unassigned) [Example 45]
17 | ≥ 7.70 | ≥ 7.70 | CC[C@@H]1CN(c2nc3nncn3c3c2nc(C)n3C[C@@H]2CCCO2)[C@@H](C)CN1C(c1ccc(F)cc1)c1ccc(F)cc1 [Example 20, 4-((2S,5R)-4-(Bis(4-fluorophenyl)methyl)-5-ethyl-2-methylpiperazin-1-yl)-2-methyl-1-(((S)-tetrahydrofuran-2-yl)methyl)-1H-[1,2,4]triazolo[3,4-b]purine]
18 | ≥ 7.70 | ≥ 7.70 | Cc1nc2c(N3C[C@@H](C)N([C@H](c4ccc(OC(F)F)cc4F)C(C)C)C[C@@H]3C)nc3nncn3c2n1C[C@@H]1CCCO1 [Example 75, 4-((2S,5R)-4-((S)-1-(4-(Difluoromethoxy)-2-fluorophenyl)-2-methylpropyl)-2,5-dimethylpiperazin-1-yl)-2-methyl-1-(((S)-tetrahydrofuran-2-yl)methyl)-1H-[1,2,4]triazolo[3,4-b]purine]
19 | ≥ 7.70 | ≥ 7.70 | C[C@@H]1CN(c2nc3nncn3c3c2ncn3C[C@@H]2CCCO2)[C@@H](C)CN1C(c1ccc(Cl)cc1)c1ccc(Cl)cc1 [Example 93, 4-((2S,5R)-4-(Bis(4-chlorophenyl)methyl)-2,5-dimethylpiperazin-1-yl)-1-(((S)-tetrahydrofuran-2-yl)methyl)-1H-[1,2,4]triazolo[3,4-b]purine]
20 | ≥ 7.70 | ≥ 7.70 | COc1ccc([C@@H](C(C)C)N2C[C@H](C)N(c3nc4nncn4c4c3nc(C)n4C[C@@H]3CCCO3)C[C@H]2C)cc1 [Example 78, 4-((2S,5R)-4-((R)-1-(4-methoxyphenyl)-2-methylpropyl)-2,5-dimethylpiperazin-1-yl)-2-methyl-1-(((S)-tetrahydrofuran-2-yl)methyl)-1H-[1,2,4]triazolo[3,4-b]purine]
21 | ≥ 7.70 | ≥ 7.70 | CC[C@H]1CN(C(c2ccc(F)cc2)c2ccc(F)cc2)[C@H](CC)CN1c1nc2nncn2c2c1nnn2C[C@@H]1CCCO1 [Example 31, 4-((2S,5R)-4-(Bis(4-fluorophenyl)methyl)-2,5-diethylpiperazin-1-yl)-1-(((S)-tetrahydrofuran-2-yl)methyl)-1H-[1,2,3]triazolo[4,5-e][1,2,4]triazolo[4,3-a]pyrimidine]
